Where two headings read alike, the source gives them in different places. *1 amine or outer side, *2 acyl side, *3 side chain or, on linkers, in order; H or OH if unused. Where a SMILES comes first, the peptide text is derived from it. Bridges are numbered along the chain shown (N, C = ends). Roman numbers before positions name the chains, in order. [ ]: non-standard residue; d: D form. Phe(3-Me) = Cc1cccc(C[C@H](N)C(=O)O)c1; Phe(4-Me) = Cc1ccc(C[C@H](N)C(=O)O)cc1; Diglycolyl = O=C(COCC(=O)[*:2])[*:1]; Phe(2-Me) = Cc1ccccc1C[C@H](N)C(=O)O; NMeR = CN[C@@H](CCCNC(=N)N)C(=O)O; Tic = O=C(O)[C@@H]1Cc2ccccc2CN1; β3hE = N[C@@H](CCC(=O)O)CC(=O)O; X1 = O=C(c1ccccc1C[*:2])[*:1]; Pen = CC(C)(S)[C@H](N)C(=O)O
What was measured:
[1] = Simulated Intestinal Fluid (SIF) Stability Assay; assay type: in vitro ADME; details: pig, 37° C.; for half-life at 22 μM: simulated intestinal fluid (SIF) with 1% porcine pancreatin, pH 6.5, porcine pancreatin; for half-life: porcine pancreatin
Experimental: Simulated Intestinal Fluid (SIF) Stability Assay
Studies were carried out in simulated intestinal fluid (SIF) to evaluate intestinal stability of the peptide molecules of the instant invention. To prepare the SIF reagent, blank FASSIF was prepared by dissolving 0.348 g NaOH, 3.954 g sodium phosphate monobasic monohydrate and 6.186 g NaCl in a final volume of 1 liter water (final pH=6.5). To this solution, 24 g porcine pancreatin (Sigma catalog P7545) was added and stirred for 30 minutes (final pancreatin concentration is 2.4%). The solution was filtered through a cheese cloth and a No. 1 Whatman filter, and 10 ml aliquots were stored at −70° C. To run the reaction, a 10 ml aliquot was thawed at 37° C., and 125 μl aliquots were removed and mixed with an equal volume of blank FASSIF. The peptide stock solution (10 mM in 100% DMSO) was diluted 75-fold in blank FASSIF. A 50 μl aliquot of the diluted peptide was combined with 125 μl pancreatin (2.4%) and 125 μl blank FASSIF to yield final concentrations of 1% pancreatin and 22 μM peptide. The reactions were incubated at 37° C., and at various time points 50 μl aliquots were removed and added to 200 μl of quench solution containing 50% acetonitrile, 50% methanol, 5% formic acid, and 1 μg/ml internal standard. The quenched samples were centrifuged at 10,000 rpm for 10 minutes, and the supernatants were analyzed by LCMS/MS. The percent remaining at each time point was calculated based on the peak area response ratio of test to compound to internal standard. Half-lives were calculated by fitting to a first-order exponential decay equation using GraphPad. A small sampling of the results of these studies is provided and discussed herein and in the accompanying figures.

RPMI 8866 cells = target: T1, RPMI 8866 cells (Homo sapiens, UniProt P13612+P26010); test: α4β7-MAdCAM Cell Adhesion Assay; assay type: cell-based; details: read-out: Cell-Adhesion A4B7
T1 sequence (P13612 34-1032): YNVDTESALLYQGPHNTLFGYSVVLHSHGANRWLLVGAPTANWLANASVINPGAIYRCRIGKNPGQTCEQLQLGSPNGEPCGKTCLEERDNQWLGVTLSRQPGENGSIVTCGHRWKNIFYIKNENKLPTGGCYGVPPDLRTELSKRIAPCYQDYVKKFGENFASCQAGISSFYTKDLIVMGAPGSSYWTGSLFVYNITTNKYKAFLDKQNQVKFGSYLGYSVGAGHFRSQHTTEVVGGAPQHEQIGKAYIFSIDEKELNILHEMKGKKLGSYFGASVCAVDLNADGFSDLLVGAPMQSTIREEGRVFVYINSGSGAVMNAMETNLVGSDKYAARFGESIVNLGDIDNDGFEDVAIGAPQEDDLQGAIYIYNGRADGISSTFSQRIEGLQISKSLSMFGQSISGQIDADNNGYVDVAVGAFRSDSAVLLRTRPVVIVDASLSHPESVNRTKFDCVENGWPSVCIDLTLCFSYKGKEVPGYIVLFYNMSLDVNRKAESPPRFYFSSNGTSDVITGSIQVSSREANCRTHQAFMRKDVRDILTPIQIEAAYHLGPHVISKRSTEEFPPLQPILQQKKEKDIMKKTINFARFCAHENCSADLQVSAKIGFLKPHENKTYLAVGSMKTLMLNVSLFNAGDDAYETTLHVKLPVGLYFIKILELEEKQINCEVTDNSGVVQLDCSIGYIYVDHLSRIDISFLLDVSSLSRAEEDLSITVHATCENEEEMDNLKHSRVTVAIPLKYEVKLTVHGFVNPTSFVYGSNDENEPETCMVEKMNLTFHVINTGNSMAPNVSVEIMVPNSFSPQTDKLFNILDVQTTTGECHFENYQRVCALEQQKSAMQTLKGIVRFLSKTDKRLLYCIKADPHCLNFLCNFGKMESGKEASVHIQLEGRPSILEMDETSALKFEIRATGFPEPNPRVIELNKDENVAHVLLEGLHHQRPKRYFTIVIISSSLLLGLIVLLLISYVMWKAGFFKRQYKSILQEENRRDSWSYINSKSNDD
T1 sequence (P26010 20-798): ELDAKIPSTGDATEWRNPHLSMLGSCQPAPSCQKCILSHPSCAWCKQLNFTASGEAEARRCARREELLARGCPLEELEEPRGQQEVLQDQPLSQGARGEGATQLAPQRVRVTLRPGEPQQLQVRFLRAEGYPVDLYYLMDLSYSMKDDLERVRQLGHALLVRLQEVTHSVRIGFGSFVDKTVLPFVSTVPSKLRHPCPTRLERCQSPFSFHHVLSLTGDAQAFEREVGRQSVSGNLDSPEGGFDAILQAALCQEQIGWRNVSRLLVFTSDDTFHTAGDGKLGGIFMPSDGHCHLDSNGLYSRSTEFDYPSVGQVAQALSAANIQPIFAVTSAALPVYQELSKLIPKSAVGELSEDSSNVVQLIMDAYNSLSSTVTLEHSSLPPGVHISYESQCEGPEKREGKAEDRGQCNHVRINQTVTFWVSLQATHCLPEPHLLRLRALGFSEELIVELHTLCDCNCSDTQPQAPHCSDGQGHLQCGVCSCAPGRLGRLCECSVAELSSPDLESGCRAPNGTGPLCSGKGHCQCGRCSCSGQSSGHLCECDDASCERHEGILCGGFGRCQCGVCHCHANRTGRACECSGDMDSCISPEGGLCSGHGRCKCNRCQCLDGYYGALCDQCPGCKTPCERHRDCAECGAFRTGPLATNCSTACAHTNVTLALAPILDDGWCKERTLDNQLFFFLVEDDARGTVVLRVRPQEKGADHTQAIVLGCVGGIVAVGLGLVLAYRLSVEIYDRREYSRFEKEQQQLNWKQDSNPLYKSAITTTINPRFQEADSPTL
Summary of the method: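 Peptide inhibition of adhesion measured with MAdCAM-1/Fc chimera immobilised at 200 ng/well and MnCl2-activated (1 mM) RPMI 8866 cells, 30-45 min at 37° C. Adherent cells remaining after three washes detected by MTT reduction at 570 nm, corrected for no-cell wells, giving dose response.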

[2] = thioether peptide dimers, Table 7
[3] = thioether monomer peptides, Table 6

SMILES	half-life at 22 μM ([1]; dimers, Table 7)	IC50 (RPMI 8866 cells; [2])	half-life ([1]; dimers, Table 7)	half-life ([1]; monomers, Table 6)	IC50 (RPMI 8866 cells; [3])
COC(=O)CC[C@H](NC(=O)[C@@H]1Cc2ccccc2CN1C(=O)[C@@H]1CSCc2ccccc2C(=O)N(C)[C@@H](CCCNC(=N)N)C(=O)N[C@@H](CO)C(=O)N[C@@H](CC(=O)O)C(=O)N[C@@H]([C@@H](C)O)C(=O)N[C@@H](CC(C)C)C(=O)N1)C(=O)N[C@H](CCCCN)C(N)=O [compound 211] (HELM PEPTIDE1{[meR].S.D.T.L.C.[Tic].E.[dK].[am]}|CHEM1{[CO[*:1]]}|CHEM2{[O=C(c1ccccc1C[*:2])[*:1]]}$PEPTIDE1,CHEM1,8:R3-1:R1|PEPTIDE1,CHEM2,1:R1-1:R1|PEPTIDE1,CHEM2,6:R3-1:R2$$$V2.0)	0.117 h	< 25 nM	–	–	–
COC(=O)CC[C@H](NC(=O)[C@@H]1Cc2ccccc2CN1C(=O)[C@@H]1CSCc2ccccc2C(=O)N(C)[C@@H](CCCNC(=N)N)C(=O)N[C@@H](CO)C(=O)N[C@@H](CC(=O)O)C(=O)N[C@@H]([C@@H](C)O)C(=O)N[C@@H](CC(C)C)C(=O)N1)C(=O)N[C@H](CCCCNC(=O)COCC(=O)NCCCC[C@@H](NC(=O)[C@H](CCC(=O)OC)NC(=O)[C@@H]1Cc2ccccc2CN1C(=O)[C@@H]1CSCc2ccccc2C(=O)N(C)[C@@H](CCCNC(=N)N)C(=O)N[C@@H](CO)C(=O)N[C@@H](CC(=O)O)C(=O)N[C@@H]([C@@H](C)O)C(=O)N[C@@H](CC(C)C)C(=O)N1)C(=O)O)C(=O)O [compound 220] (I: [NMeR]SDTLC[Tic]E(OMe)[dK]-OH / II: [NMeR]SDTLC[Tic]E(OMe)[dK]-OH; linker I:9-II:9 via Diglycolyl; linker I:N-I:6, II:N-II:6 via X1)	–	< 25 nM	> 3 h	–	–
CC(C)C[C@@H]1NC(=O)[C@H]([C@@H](C)O)NC(=O)[C@H](CC(=O)O)NC(=O)[C@H](CO)NC(=O)[C@H](CCCNC(=N)N)N(C)C(=O)c2ccccc2CSC[C@@H](C(=O)N2Cc3ccccc3C[C@H]2C(=O)N[C@H](CCCCN)C(N)=O)NC1=O [compound 216] (HELM PEPTIDE1{[meR].S.D.T.L.C.[Tic].[dK].[am]}|CHEM1{[O=C(c1ccccc1C[*:2])[*:1]]}$PEPTIDE1,CHEM1,1:R1-1:R1|PEPTIDE1,CHEM1,6:R3-1:R2$$$V2.0)	> 3 h	< 25 nM	–	–	–
Cc1ccc(C[C@H](NC(=O)[C@H]2NC(=O)[C@H](CC(C)C)NC(=O)[C@H]([C@@H](C)O)NC(=O)[C@H](CC(=O)O)NC(=O)[C@H](CO)NC(=O)[C@H](CCCNC(=N)N)N(C)C(=O)c3ccccc3CSC2(C)C)C(=O)N[C@@H](CCC(=O)O)CC(N)=O)cc1 [compound 132] ([NMeR]SDTL[Pen][Phe(4-Me)][β3hE]-NH2; linker N-6 via X1)	–	–	–	> 3 h	< 25 nM
Cc1cccc(C[C@H](NC(=O)[C@H]2NC(=O)[C@H](CC(C)C)NC(=O)[C@H]([C@@H](C)O)NC(=O)[C@H](CC(=O)O)NC(=O)[C@H](CO)NC(=O)[C@H](CCCNC(=N)N)N(C)C(=O)c3ccccc3CSC2(C)C)C(=O)N[C@@H](CCC(=O)O)CC(N)=O)c1 [compound 125] ([NMeR]SDTL[Pen][Phe(3-Me)][β3hE]-NH2; linker N-6 via X1)	–	–	–	> 3 h	< 25 nM
CC(C)C[C@@H]1NC(=O)[C@H]([C@@H](C)O)NC(=O)[C@H](CC(=O)O)NC(=O)[C@H](CO)NC(=O)[C@H](CCCNC(=N)N)N(C)C(=O)CCSCC[C@@H](C(=O)N[C@@H](Cc2c[nH]c3ccccc23)C(=O)N[C@H](CCCCNC(=O)COCC(=O)NCCCC[C@@H](NC(=O)[C@H](Cc2c[nH]c3ccccc23)NC(=O)[C@@H]2CCSCCC(=O)N(C)[C@@H](CCCNC(=N)N)C(=O)N[C@@H](CO)C(=O)N[C@@H](CC(=O)O)C(=O)N[C@@H]([C@@H](C)O)C(=O)N[C@@H](CC(C)C)C(=O)N2)C(N)=O)C(N)=O)NC1=O [compound 149]	–	> 1000 nM	< 0.333 h	–	–
Cc1ccccc1C[C@H](NC(=O)[C@H]1NC(=O)[C@H](CC(C)C)NC(=O)[C@H]([C@@H](C)O)NC(=O)[C@H](CC(=O)O)NC(=O)[C@H](CO)NC(=O)[C@H](CCCNC(=N)N)N(C)C(=O)c2ccccc2CSC1(C)C)C(=O)N[C@@H](CCC(=O)O)CC(N)=O [compound 126] ([NMeR]SDTL[Pen][Phe(2-Me)][β3hE]-NH2; linker N-6 via X1)	–	–	–	> 3 h	25 to 100 nM

Source: patent publication US20260217767A1, “NOVEL A4B7 THIOETHER PEPTIDE DIMER ANTAGONISTS” (Protagonist Therapeutics, Inc., priority 2014, published 2026)
